Reference: US20240254118A1, “PRMT5 INHIBITORS AND USES THEREOF” (Gilead Sciences, Inc., priority 2022, published 2024)

What was measured:
[1] = tested on: SDMA signal (PRMT5 inhibition) in HCT116 MTAP-deleted cells; test: Symmetric di-methyl arginine image-based high content screen assay (SDMA assay), HCT116 MTAP-deleted; type: cell-based; settings: SDMA assay; for EC50: Homo sapiens, HCT-116, 72 h, 3 days of treatment, cell line not given, taken as HCT116 MTAP-deleted, read-out: EC50 (SDMA assay); for EC50 selectivity (SDMA assay): taken as HCT116 WT versus MTAP-deleted
Outline: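 Read-out: per-cell mean SDMA immunofluorescence (Alexa Fluor 488 secondary), cells segmented by DAPI on a high-content imager. Compound exposure in HCT116 MTAP-deleted cells lasted until fixation on Day 3; overnight 4° C primary anti-SDMA antibody staining.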

[2] = tested on: HCT116 MTAP-deleted cells; test: Cell viability assay (CellTiter-Glo, 7 days), HCT116 MTAP-deleted; settings: Homo sapiens, HCT-116, 168 h

| Compound | EC50 [1] [nM] | EC50 selectivity (SDMA assay) [1] | CC50 [2] [nM] |
| --- | --- | --- | --- |
| CC(=O)N(C)N(Cc1ccc2nsnc2c1)C(=O)c1ccc2nc(N)c3cnn(C)c3c2c1 [Example 96, N′-acetyl-4-amino-N-(2,1,3-benzothiadiazol-5-ylmethyl)-N′,1-dimethyl-pyrazolo[4,3-c]quinoline-8-carbohydrazide] | 1 to 5 | 290 | < 100 |
| CC(=O)N(C)N(Cc1ccc(C2CC2)cc1)C(=O)c1ccc2nc(N)c3cnn(C)c3c2c1 [Example 98, N′-acetyl-4-amino-N-(4-cyclopropylbenzyl)-N′,1-dimethyl-1H-pyrazolo[4,3-c]quinoline-8-carbohydrazide] | < 1 | 120 | < 100 |
| CN(C(=O)C1CC(F)(F)C1)N(Cc1ccc(C(F)(F)F)cn1)C(=O)c1ccc2nc(N)c3cnn(C)c3c2c1 [Example 99, 4-amino-N′-(3,3-difluorocyclobutane-1-carbonyl)-N′,1-dimethyl-N-((5-(trifluoromethyl)pyridin-2-yl)methyl)-1H-pyrazolo[4,3-c]quinoline-8-carbohydrazide] | 1 to 5 | 269 | < 100 |
| CN(C(=O)c1ncco1)N(Cc1ccc(C(F)(F)F)cn1)C(=O)c1ccc2nc(N)c3cnn(C)c3c2c1 [Example 100, N′-(4-amino-1-methyl-1H-pyrazolo[4,3-c]quinoline-8-carbonyl)-N-methyl-N′-((5-(trifluoromethyl)pyridin-2-yl)methyl)oxazole-2-carbohydrazide] | < 1 | 7 | < 100 |
| CN(C(=O)C12CC(C1)C2)N(Cc1ccc(C(F)(F)F)cn1)C(=O)c1ccc2nc(N)c3cnn(C)c3c2c1 [Example 101, 4-amino-N′-(bicyclo[1.1.1]pentane-1-carbonyl)-N′,1-dimethyl-N-[[5-(trifluoromethyl)-2-pyridyl]methyl]pyrazolo[4,3-c]quinoline-8-carbohydrazide] | 1 to 5 | 108 | < 100 |
| CN(C(=O)C1CCC1)N(Cc1ccc(C(F)(F)F)nn1)C(=O)c1ccc2nc(N)c3cnn(C)c3c2c1 [Example 104, 4-amino-N′-(cyclobutanecarbonyl)-N′,1-dimethyl-N-((6-(trifluoromethyl)pyridazin-3-yl)methyl)-1H-pyrazolo[4,3-c]quinoline-8-carbohydrazide] | 1 to 5 | 173 | < 100 |
| CN(C(=O)c1cscn1)N(Cc1ccc(C(F)(F)F)cn1)C(=O)c1ccc2nc(N)c3cnn(C)c3c2c1 [Example 106, N′-(4-amino-1-methyl-1H-pyrazolo[4,3-c]quinoline-8-carbonyl)-N-methyl-N′-((5-(trifluoromethyl)pyridin-2-yl)methyl)thiazole-4-carbohydrazide] | < 1 | 16 | < 100 |
| CN(C(=O)C1CC1)N(Cc1ccc(C(F)(F)F)cn1)C(=O)c1ccc2nc(N)c3cnn(C)c3c2c1 [Example 111, 4-amino-N′-(cyclopropanecarbonyl)-N′,1-dimethyl-N-[[5-(trifluoromethyl)-2-pyridyl]methyl]pyrazolo[4,3-c]quinoline-8-carbohydrazide] | < 1 | 129 | < 100 |
| CC(=O)N(c1ncccn1)N(Cc1ccc(C(F)(F)F)cn1)C(=O)c1ccc2nc(N)c3cnn(C)c3c2c1 [Example 114, N′-acetyl-4-amino-1-methyl-N′-pyrimidin-2-yl-N-[[5-(trifluoromethyl)-2-pyridyl]methyl]pyrazolo[4,3-c]quinoline-8-carbohydrazide] | < 1 | 32 | < 100 |
| CC(=O)N(CC(F)F)N(Cc1ccc(C(F)(F)F)cn1)C(=O)c1ccc2nc(N)c3cnn(C)c3c2c1 [Example 115, N′-acetyl-4-amino-N′-(2,2-difluoroethyl)-1-methyl-N-[[5-(trifluoromethyl)-2-pyridyl]methyl]pyrazolo[4,3-c]quinoline-8-carbohydrazide] | 1 to 5 | 382 | 100 to 1000 |
| CC(=O)N(CC(F)(F)F)N(Cc1ccc(C(F)(F)F)cn1)C(=O)c1ccc2nc(N)c3cnn(C)c3c2c1 [Example 116, N′-acetyl-4-amino-1-methyl-N′-(2,2,2-trifluoroethyl)-N-[[5-(trifluoromethyl)-2-pyridyl]methyl]pyrazolo[4,3-c]quinoline-8-carbohydrazide] | 1 to 5 | 189 | 100 to 1000 |
| CN(C(=O)C1(F)CC1)N(Cc1ccc(C(F)(F)F)cn1)C(=O)c1ccc2nc(N)c3cnn(C)c3c2c1 [Example 117, 4-amino-N′-(1-fluorocyclopropanecarbonyl)-N′,1-dimethyl-N-[[5-(trifluoromethyl)-2-pyridyl]methyl]pyrazolo[4,3-c]quinoline-8-carbohydrazide] | < 1 | 34 | < 100 |

Now from value to compound, other results behind:

| EC50 [1] [nM] | EC50 selectivity (SDMA assay) [1] | Compound | CC50 [2] [nM] |
| --- | --- | --- | --- |
| 1 to 5 | 98 | CC(=O)N(C)N(Cc1nc2cc(Cl)ccc2o1)C(=O)c1ccc2nc(N)c3cnn(C)c3c2c1 [Example 97, N′-acetyl-4-amino-N-((5-chlorobenzo[d]oxazol-2-yl)methyl)-N′,1-dimethyl-1H-pyrazolo[4,3-c]quinoline-8-carbohydrazide] | < 100 |
| 1 to 5 | 252 | CN(C(=O)C12CC(F)(C1)C2)N(Cc1ccc(C(F)(F)F)cn1)C(=O)c1ccc2nc(N)c3cnn(C)c3c2c1 [Example 102, 4-amino-N′-(3-fluorobicyclo[1.1.1]pentane-1-carbonyl)-N′,1-dimethyl-N-[[5-(trifluoromethyl)-2-pyridyl]methyl]pyrazolo[4,3-c]quinoline-8-carbohydrazide] | < 100 |
| > 5 | <500 | CC(=O)N1CC(C(=O)N(C)N(Cc2ccc(C(F)(F)F)cn2)C(=O)c2ccc3nc(N)c4cnn(C)c4c3c2)C1 [Example 103, N′-(1-acetylazetidine-3-carbonyl)-4-amino-N′,1-dimethyl-N-[[5-(trifluoromethyl)-2-pyridyl]methyl]pyrazolo[4,3-c]quinoline-8-carbohydrazide] | > 1000 |
| < 1 | 15 | CN(C(=O)c1cocn1)N(Cc1ccc(C(F)(F)F)cn1)C(=O)c1ccc2nc(N)c3cnn(C)c3c2c1 [Example 105, N′-(4-amino-1-methyl-1H-pyrazolo[4,3-c]quinoline-8-carbonyl)-N-methyl-N′-((5-(trifluoromethyl)pyridin-2-yl)methyl)oxazole-4-carbohydrazide] | < 100 |
| < 1 | 163 | CC(=O)N(N(Cc1ccc(C(F)(F)F)cn1)C(=O)c1ccc2nc(N)c3cnn(C)c3c2c1)C12CC(C1)C2 [Example 107, N′-acetyl-4-amino-N′-(1-bicyclo[1.1.1]pentanyl)-1-methyl-N-[[5-(trifluoromethyl)-2-pyridyl]methyl]pyrazolo[4,3-c]quinoline-8-carbohydrazide] | < 100 |
| < 1 | 70 | CN(C(=O)C1CCC1)N(Cc1ccc(C(F)(F)F)cn1)C(=O)c1ccc2nc(N)c3cnn(C)c3c2c1 [Example 108, 4-amino-N′-(cyclobutanecarbonyl)-N′,1-dimethyl-N-[[5-(trifluoromethyl)-2-pyridyl]methyl]pyrazolo[4,3-c]quinoline-8-carbohydrazide] | < 100 |
| < 1 | 12 | CN(C(=O)OCC(F)(F)F)N(Cc1ccc(C(F)(F)F)cn1)C(=O)c1ccc2nc(N)c3cnn(C)c3c2c1 [Example 109, 2,2,2-trifluoroethyl N-[(4-amino-1-methyl-pyrazolo[4,3-c]quinoline-8-carbonyl)-[[5-(trifluoromethyl)-2-pyridyl]methyl]amino]-N-methyl-carbamate] | < 100 |
| < 1 | 11 | CN(C(=O)OCC(F)F)N(Cc1ccc(C(F)(F)F)cn1)C(=O)c1ccc2nc(N)c3cnn(C)c3c2c1 [Example 110, 2,2-difluoroethyl N-[(4-amino-1-methyl-pyrazolo[4,3-c]quinoline-8-carbonyl)-[[5-(trifluoromethyl)-2-pyridyl]methyl]amino]-N-methyl-carbamate] | < 100 |
| < 1 | 46 | CN(C(=O)OC1CCC1)N(Cc1ccc(C(F)(F)F)cn1)C(=O)c1ccc2nc(N)c3cnn(C)c3c2c1 [Example 112, cyclobutyl N-[(4-amino-1-methyl-pyrazolo[4,3-c]quinoline-8-carbonyl)-[[5-(trifluoromethyl)-2-pyridyl]methyl]amino]-N-methyl-carbamate] | < 100 |
| 1 to 5 | 404 | CN(C(=O)c1ccncc1)N(Cc1ccc(C(F)(F)F)cn1)C(=O)c1ccc2nc(N)c3cnn(C)c3c2c1 [Example 113, 4-amino-N′,1-dimethyl-N′-(pyridine-4-carbonyl)-N-[[5-(trifluoromethyl)-2-pyridyl]methyl]pyrazolo[4,3-c]quinoline-8-carbohydrazide] | 100 to 1000 |
| < 1 | 96 | CN(C(=O)c1ccccn1)N(Cc1ccc(C(F)(F)F)cn1)C(=O)c1ccc2nc(N)c3cnn(C)c3c2c1 [Example 118, 4-amino-N′,1-dimethyl-N′-picolinoyl-N-((5-(trifluoromethyl)pyridin-2-yl)methyl)-1H-pyrazolo[4,3-c]quinoline-8-carbohydrazide] | < 100 |
